# Patent publication US20250135012A1, “DENDRIMER CONJUGATES OF SMALL MOLECULE BIOLOGICS FOR INTRACELLULAR DELIVERY” (The Johns Hopkins University, priority 2021, published 2025)
# Values joined by “and” are separate entries in the source; they are usually repeats but may differ in a detail not shown here. Equal entries are not always repeated. Non-standard residues stand in square brackets, D forms with d. Residues, ends and D or L forms follow the SMILES beside them. Cya = N[C@@H](CS(=O)(=O)O)C(=O)O
# Columns and labels:
# HUVEC cells = experiment: HUVEC vessel formation assay on Matrigel; type: cell-based, human; settings: 1 mM
# Method: 96 well plates were coated with 75 μL of […]® and left at room temperature for 15 minutes before placing into 37° C. incubators for an additional 30 minutes. D-ALG1001 was dissolved at twice the desired concentration and 50 μL of the drug solution was added to the wells. HUVEC cells were then added to each well at a density of 70,000 cells/cm^2. Live-cell images were taken at 12 h for analysis.
# To find the effective dose in a physiologically relevant model, an in vitro model of blood vessel formation was utilized. HUVEC cells were treated with a gradient concentration of D-ALG and ALG-1001 for 24 h at three different magnitudes of doses. The cells were then seeded on […]® after which cells naturally migrate to form blood vessel-like tubule structures. The images were analyzed with Angiogenesis Analyzer plug-in on ImageJ to extract relevant metrics that measure the connectivity and integrity of tube networks (FIG. 16).
# VEGF-A = VEGF-A expression by VEGF stimulated endothelial cells; type: cell-based, human; settings: co-incubated with VEGF-A
# Method: Cells were treated with D-ALG1001 and ALG-1001 for 24 h before activation with VEGF for 5 minutes. […] Cells were lysed with TRIZOL® and processed as previously described for qPCR analysis.
# In addition to examining pathway activation, the effects of D-ALG and ALG-1001 were also studied on VEGF-A expression by endothelial cells.
# [1] = test system: choroidal neovascularization (CNV); experiment: Laser CNV model, CNV area; type: in vivo, Brown Norway rats
# Method: Animals were anesthetized through intraperitoneal injections of a ketamine/xylazine cocktail (ketamine 50 mg/kg and xylazine 10 mg/kg). Pupils are dilated with topical 2.5% Phenylephrine Hydrochloride solution followed by 0.5% Tetracaine Hydrochloride solution. To induce CNV formation, four equally spaced lesions will be created in the Bruch's membrane with a built-in laser system on the Micron III SLO. Laser power was set to […] with duration of 70 ms. Gonio ophthalmic solution was applied post-operatively to prevent eyes from drying and forming cataracts.
# On the day of CNV induction (Day 0), D-ALG1001 and ALG1001 was administered intraperitoneally at a dose of 150 μg on a peptide basis. […]
# After fixation, the posterior segment of the eye was dissected out and the retina separated from the choroid. […] Samples for CNV quantification were imaged with an Axiovert phase contrast microscope. […]
# A Micron III SLO scope and laser attachment was used to induce CNV formation in mice. […] Whether dendrimer conjugation impeded the peptide from attenuating CNV was assessed by first injecting ALG-1001 and D-ALG intravitreally after CNV induction. The eyes were then collected on day 7 and CNV area quantified.
# The protection and targeting of D-ALG allowed for less invasive administration routes. […] Choroidal flatmount of eyes at day 7 and 14 were imaged and the CNV area was calculated using ImageJ.
# TNFα = experiment: Choroid TNFα qPCR; type: in vivo, Brown Norway rats; settings: 7 and 14 days
# Method: (§1) In brief, 500 μL of T-Per supplemented with PHOSSTOP® and proteinase inhibitor cocktail was added to tubes containing dissected choroid. A scoop of 1.6 mm steel homogenization beads was added to each sample and then placed in […]® LT (Qiagen) at an oscillation frequency of 50/s for 15 minutes. For qPCR, 200 μL of TRIZOL® was added to tubes containing choroid and a scoop of 1.6 mm steel homogenization beads was added. The samples were placed in […]® LT at an oscillation frequency of 50/s for 15 minutes.
# (§2) 100 μL of chloroform was added to the Trizol suspension and the aqueous phase was separated with a centrifuge at 10K RPM at 4° C. for 15 minutes. 400 μL of 2-propanol was added to the aqueous solution and spun again to pellet the RNA. The RNA was washed with 70% ethanol solution, pelleted again, and re-suspended in DEPC (ultrapure treated to inactivated enzymes) water.
# (§3) To convert RNA to complementary DNA, 2 μg of RNA was converted using a High-Capacity cDNA Reverse Transcription Kit (Applied Biosystems, Foster City, CA). Samples were analyzed using STEPONE PLUS® real-time PCR system (Applied Biosystems) with SYBR Green reagent (ThermoFisher Scientific). Relative expression was quantified with ΔΔCt calculations normalized to controls. Primers for GAPDH was obtained from Bio-Rad Laboratories (Hercules, CA). Primers were purchased from Integrated DNA Technologies (Coralville, IA). […]
# IL1β = experiment: Choroid IL1β qPCR; type: in vivo, Brown Norway rats; settings: 7 and 14 days
# Method: as §1, §2, §3
structure (smiles),measurement,setting,value
C[C@@H](O)[C@H](NC(=O)[C@H](CS(=O)(=O)O)NC(=O)CNC(=O)[C@H](CCCNC(=N)N)NC(=O)CN)C(=O)N1CCC[C@H]1C(=O)O [ALG-1001] (H-GRG[Cya]TP-OH; N-terminus and C-terminus assumed),tube formation,HUVEC cells,increased disruption in tube formation
same,VEGF production compared to the control,VEGF-A,did not have statistically significant increases
same,reduction of CNV formation,"[1]; day 7, intraperitoneal 150 μg peptide basis every 4 days",~60% and 40%
same,formation of CNV,"[1]; intravitreal, day 7",significantly inhibited
same,TNFα level (qPCR),TNFα,lower TNFα levels across both time points
same,IL1β expression (qPCR),IL1β,only reduced at day 14
